# Key:
# Assay type in all cases: physicochemical
# [1] = Dyad photophysical properties in toluene, excited at 405 nm; design: ext coeff (abs max B) / brightness (abs max): unit not given here; conditions: for ext coeff (405 nm) / brightness (405 nm): at 405 nm; for ext coeff (405 nm) / FWHM / QY (x405) / abs max B / abs max Qx / abs max Qy / ext coeff (abs max B) / em max: room temperature; for ext coeff (405 nm): in M-1 cm-1 (unit assumed); for FWHM: emission peak; for FWHM / QY (x405) / em max: excited at 405 nm; for QY (x405): fluorescence quantum yield; for brightness (405 nm) / brightness (abs max): molar absorption coefficient x fluorescence quantum yield; for brightness (405 nm): in M⁻¹cm⁻¹; for brightness (abs max): at abs max
# Protocol: (§1) The photophysical properties of samples were tested in toluene at room temperature and excited at 405 nm.
# [2] = Brightness of hydroporphyrin monomers vs. porphyrin-hydroporphyrin dyads at 405 nm excitation; conditions: for fold change: brightness of dyad vs. corresponding hydroporphyrin monomer, 405 nm; for FWHM: emission peak narrowness; for QY (x405): fluorescence quantum yield in toluene at room temperature; for ext coeff (405 nm): molar absorption coefficient at 405 nm, in M-1 cm-1 (unit assumed); for brightness (405 nm): product of molar absorption coefficient at 405 nm and fluorescence quantum yield, in M⁻¹cm⁻¹; for brightness (405 nm) / abs max B / em max: toluene, room temperature
# Protocol: Brightness was calculated using an excitation wavelength of 405 nm for a hydroporphyrin monomer having an emission wavelength of approximately 660, 680, 715, or 800 nm and for a fluorescent compound including a porphyrin and a hydroporphyrin structurally similar to the hydroporphyrin monomer. Brightness was calculated as the product of the molar absorption coefficient at 405 nm and the fluorescence quantum yield in toluene at room temperature. Table 3 provides the emission wavelength of the hydroporphyrin monomer and the corresponding dyad, the brightness of the hydroporphyrin monomer excited at 405 nm, the brightness of the dyad excited at 405 nm, and the fold change in brightness of the hydroporphyrin monomer compared to the brightness of the dyad.
# [3] = Comparison porphyrin photophysical properties in toluene, excited at 405 nm; conditions: for ext coeff (405 nm) / brightness (405 nm): at 405 nm; for ext coeff (405 nm) / QY (x405) / abs max B / abs max Qx / em max / ext coeff (abs): room temperature; for ext coeff (405 nm) / ext coeff (abs): in M-1 cm-1 (unit assumed); for QY (x405): fluorescence quantum yield; for QY (x405) / em max: excited at 405 nm; for brightness (405 nm) / brightness (abs max): molar absorption coefficient x fluorescence quantum yield; for brightness (405 nm): in M⁻¹cm⁻¹; for brightness (abs max): at abs max
# Protocol: as §1
# [4] = Fluorescence emission spectra in toluene (FIG. 5-8); conditions: for Brightness (molar absorption coefficient×fluorescence quantum yield): FIG. 7, same sample concentration, in M⁻¹cm⁻¹; for residual porphyrin emission in fluorescence spectrum: toluene, room temperature, FIG. 5, FIG. 6
# Protocol: Emission spectra were collected in toluene at room temperature. […] P5-C3 contains a more rigid linker between chlorin and porphyrin than in P3-C1, which results in greater spatial separation of the two components and lower energy transfer.
# Brightness (molar absorption coefficient×fluorescence quantum yield): 84,700 (P3-C1), 13,900 (P5-C3).
# Emission spectra were collected using 0.5 uM solutions in toluene. Brightness (molar absorption coefficient×fluorescence quantum yield): 19,900 (P11-BC3 meso), 45,100 (P11-BC1 beta).
SMILES,ext coeff (405 nm) [1],FWHM [1] [nm],QY (x405) [1],brightness (405 nm) [1],brightness (abs max) [1],abs max B [1] [nm],abs max Qx [1] [nm],abs max Qy [1] [nm],ext coeff (abs max B) [1],em max [1] [nm],further results
COC(=O)c1ccc(C#Cc2cc3cc4nc(cc5[nH]c(cc6nc(c(OC)c2[nH]3)CC6(C)C)cc5C#Cc2ccc(-c3c5nc(cc6ccc(cc7nc(cc8ccc3[nH]8)C=C7)[nH]6)C=C5)cc2)CC4(C)C)cc1 [Dyad P1-BC1],"276,800",21,0.23,"64,405","64,405",405,529,760,"276,800",765,–
COC(=O)c1c(C#Cc2ccc(-c3c4nc(cc5ccc(cc6nc(cc7ccc3[nH]7)C=C6)[nH]5)C=C4)cc2)c2cc3nc(c(OC)c4[nH]c(cc5nc(cc1[nH]2)CC5(C)C)c(C#Cc1ccc(-c2c5nc(cc6ccc(cc7nc(cc8ccc2[nH]8)C=C7)[nH]6)C=C5)cc1)c4C(=O)OC)CC3(C)C [Dyad P1-BC2],"325,400",31,0.19,"60,845","60,845",405,499,795,"325,400",804,"fold change [2]: 18.6; FWHM [2]: 31 nm; QY (x405) [2]: 0.19; ext coeff (405 nm) [2]: 325,400; brightness (405 nm) [2]: 60,845; abs max B [2]: 405 nm; em max [2]: 804 nm"
COC(=O)c1ccc(-c2c3nc(cc4[nH]c(cc5nc(cc6[nH]c2cc6C#Cc2ccc(-c6c7nc(cc8ccc(cc9nc(cc%10ccc6[nH]%10)C=C9)[nH]8)C=C7)cc2)CC5(C)C)cc4C#Cc2ccc(-c4c5nc(cc6ccc(cc7nc(cc8ccc4[nH]8)C=C7)[nH]6)C=C5)cc2)C=C3)cc1 [Dyad P1-C6],"238,800",17,0.34,"80,567","81,579",406,499,680,"241,800",682,"fold change [2]: 6.4; FWHM [2]: 17 nm; QY (x405) [2]: 0.34; ext coeff (405 nm) [2]: 238,800; brightness (405 nm) [2]: 80,567; abs max B [2]: 406 nm; em max [2]: 682 nm"
CC1(C)OB(c2ccc(CNC(=O)c3ccc(C4=C5C=CC(=N5)C=c5ccc6[n]5[Zn][n]5c(ccc54)C=C4C=CC(=N4)C=6)cc3)cc2)OC1(C)C [Dyad P2],–,–,–,–,–,–,–,–,–,–,"ext coeff (405 nm) [3]: 209,100; QY (x405) [3]: 0.03; brightness (405 nm) [3]: 5,899; brightness (abs max) [3]: 6,466; abs max B [3]: 407 nm; abs max Qx [3]: 533 nm; em max [3]: 623 nm; ext coeff (abs) [3]: 229,200"
COC(=O)c1ccc(-c2c3nc(cc4[nH]c(cc5nc(cc6[nH]c2cc6-c2ccc(CNC(=O)c6ccc(-c7c8nc(cc9ccc([nH]9)c(-c9c(C)cc(C)cc9C)c9nc(cc%10ccc7[nH]%10)C=C9)C=C8)cc6)cc2)CC5(C)C)cc4-c2ccccc2)C=C3)cc1 [Dyad P3-C1],"350,200",18,0.24,"84,723","106,623",410,505,652,"440,633",656,"Brightness (molar absorption coefficient×fluorescence quantum yield) [4]: 84,700; residual porphyrin emission in fluorescence spectrum [4]: no residual emission from the porphyrin"
Cc1cc(C)c(-c2c3nc(cc4ccc([nH]4)c(-c4ccc(C(=O)NCc5ccc(B6OC(C)(C)C(C)(C)O6)cc5)cc4)c4nc(cc5ccc2[nH]5)C=C4)C=C3)c(C)c1 [Dyad P3],–,–,–,–,–,–,–,–,–,–,"ext coeff (405 nm) [3]: 234,100; QY (x405) [3]: 0.04; brightness (405 nm) [3]: 9,628; brightness (abs max) [3]: 12,560; abs max B [3]: 409 nm; abs max Qx [3]: 503 nm; em max [3]: 702 nm; ext coeff (abs) [3]: 305,400"
COC(=O)c1ccc(-c2c3nc(cc4ccc(cc5nc(cc6[nH]c2cc6C#Cc2ccc(CNC(=O)c6ccc(C7=C8C=CC(=N8)C=c8ccc9[n]8[Zn][n]8c(ccc87)C=C7C=CC(=N7)C=9)cc6)cc2)CC5(C)C)[nH]4)C=C3)cc1 [Dyad P4-C3],"318,900",–,0.07,"22,648","23,813",407,532,656,"335,300",659,–
COC(=O)c1ccc(-c2c3nc(cc4ccc(cc5nc(cc6[nH]c2cc6C#Cc2ccc(CNC(=O)c6ccc(-c7c8nc(cc9ccc([nH]9)c(-c9c(C)cc(C)cc9C)c9nc(cc%10ccc7[nH]%10)C=C9)C=C8)cc6)cc2)CC5(C)C)[nH]4)C=C3)cc1 [Dyad P5-C3],"171,800",–,0.08,"13,934","17,413",409,504,657,"214,700",659,"Brightness (molar absorption coefficient×fluorescence quantum yield) [4]: 13,900; residual porphyrin emission in fluorescence spectrum [4]: porphyrin emission is apparent"
COC(=O)c1ccc(-c2c(C(=O)OC)c3cc4nc(cc5[nH]c(c(OC)c6nc(cc2[nH]3)C(C)(C)C6)c(C(=O)OC)c5C#Cc2ccc(C3=C5C=CC(=N5)C=c5ccc6[n]5[Zn][n]5c(ccc53)C=C3C=CC(=N3)C=6)cc2)C(C)(C)C4)cc1 [Dyad P8-BC2],"227,600",29,0.20,"46,569","52,298",408,538,769,"255,600",777,–
"COC(=O)c1ccc(-c2c3nc(cc4[nH]c(cc5nc(cc6[nH]c2cc6-c2ccc(CNC(=O)c6ccc(C7=C8C=CC(=N8)C=c8ccc9[n]8[Zn][n]8c(ccc87)C=C7C=CC(=N7)C=9)cc6)cc2)CC5(C)C)cc4-c2ccccc2)C=C3)cc1 [P2-C1, methyl ester]","346,400",18,0.25,"87,748","94,791",407,533,652,"374,100",656,"fold change [2]: 2.5; FWHM [2]: 18 nm; QY (x405) [2]: 0.25; ext coeff (405 nm) [2]: 346,400; brightness (405 nm) [2]: 87,748; abs max B [2]: 407 nm; em max [2]: 656 nm"
COC(=O)c1ccc(-c2c3nc(cc4ccc(cc5nc(cc6[nH]c2cc6C#Cc2ccc(-c6c7nc(cc8ccc([nH]8)c(-c8c(C)cc(C)cc8C)c8nc(cc9ccc6[nH]9)C=C8)C=C7)cc2)CC5(C)C)[nH]4)C=C3)cc1 [P7-C1; P6-C3],"227,900",15,0.21,"47,083","60,532",410,505,659,"293,000",660,–
"COC(=O)c1ccc(-c2c3nc(cc4ccc(cc5nc(cc6[nH]c2cc6C#Cc2ccc(C6=C7C=CC(=N7)C=c7ccc8[n]7[Zn][n]7c(ccc76)C=C6C=CC(=N6)C=8)cc2)CC5(C)C)[nH]4)C=C3)cc1 [P8-C2, methyl ester]","241,700",15,0.33,"80,872","88,133",408,534,659,"263,400",661,–
"COC(=O)c1ccc(C2=c3ccc4[n]3[Zn][n]3c(ccc3C(c3ccc(C#Cc5ccc(C6=c7ccc8[n]7[Zn][n]7c(ccc7C=C7N=C(C=8)CC7(C)C)C=C7C=CC6=N7)cc5)cc3)=C3C=CC(=N3)C=4)C=C3C=CC2=N3)cc1 [P9-C4, methyl ester]","181,500",14,0.04,"8,055","11,570",414,540,607,"260,700",608,–
